Reference: patent publication US6776987B1, “Enhancement of cardiac chronotropy” (Massachusetts Institute of Technology, priority 1998, dated 2004)

How the values were obtained:
[1] = system: cultured fetal murine myocardial cells; assay: In vitro myocyte contractile recruitment: percentage of beating and fast beating GFP-positive transfected myocytes; format: cell-based, B6D2F1 fetal mice
Method: (§1) Cultured fetal murine myocardial cells were prepared as previously described (Iwaki, K. et al., J Biol Chem., 265(23):13809-17 (1990); Sen, A. et al., J Clin Invest., 82 (4):1333-8 (1988)). Myocytes from ventricles of 17.5 day old B6D2F1 fetal mice were fragmented with a straight-edge razor. The tissue was then digested with 0.5 mg/ml collagenase II (Worthington Biochemical Corp., Freehold, N.J.) and 1.0 mg/ml pancreatin (Sigma Chemical Co., St. Louis, Mo.) in ADS buffer (116 mM NaCl, 20 mM HEPES, 1 MM NaH2PO4, 5.5 mM glucose, 5.4 mM KCl, 0.8 mM MgSO4, pH 7.4) at 37° C. for 10 min. The cells were centrifuged at 700 g at 4° C. for 5 min. The cells were then plated onto 48-well plates (Falcon Labware, Cockeysville, Md.) precoated with 1% gelatin or onto 25 mm^2 square coverslips precoated with 1% gelatin and 20 μg/ml laminin at a density of 10^5 cell/ml in Dulbecco's modified Eagle's media (DMEM) supplemented with 10% fetal calf serum (FCS), and Streptomycin 100 μg/ml, and Penicillin (500 μg/mL). The myocytes were grown at 37° C. in 5% CO2.
The transfection of myocytes with lipofection was optimized. Myocytes were plated as described above and grown overnight. The β2AR, LacZ, or GFP expression circular vectors (1:2.5 M/M; 0.125 μg total DNA/well) were incubated with Lipofectamine (Life Technologies) (12.5 μl/well) in Opti-Mem I (Life Technologies) reduced serum medium(12.5 μl/well) for 30 min at 25° C. After incubation, DMEM (100 μl/well) was added. The myocyte cultures were washed with PBS twice, the Lipofectamine-DNA mixtures were added, and the cultures incubated at 37° C. After 4 hours, an equal volume of DMEM with 20% FCS was added to the cultures. The cultures were incubated overnight and the medium was changed to DMEM with 10% FCS.
The myocytes were assayed 48 hr after transfection. […]
The percentage of beating myocytes was determined for cells transfected with either the β2AR expression vector or the control construct. […] In addition, the percentage of myocytes that were beating faster than 60 beats per minute (bpm) was determined in identical fashion. […]

[2] = system: cultured fetal murine myocardial cells; assay: Average rate of myocyte contraction by video edge motion detector; format: cell-based, B6D2F1 fetal mice; details: control transfected cells in the presence of 10^-3 M isoproterenol
Method: as §1
The transfection of myocytes with lipofection was optimized. […]
The average rate of myocyte contraction was quantitated by motion detector under both baseline and 10^−3 M isoproterenol. […] The statistical significance of the increased rate of myocyte contraction was determined by Student's t-Test analysis.

`CC(C)NCC(O)c1ccc(O)c(O)c1` (stereo not shown) [isoproterenol] was tested, and the “percentage of myocytes contracting” value ([1]; control LacZ transfected myocytes, increasing concentrations of isoproterenol (0-10^-3 M)) was 69%, the “percentage of myocytes with chronotropic rates greater than 60 bpm (fast beating cells)” value ([1]; control transfected cells at 10^-3 M isoproterenol) was 54% and the “effect on number of contracting myocytes” value ([1]; β2AR transfected myocytes, addition of isoproterenol) was “failed to increase”. The “average rate of contraction” value [2] was 75+/−18 bpm.
